This is an account of results in US12495798B2, “Nicotinamide compound and herbicidal composition comprising compound” (KOREA RESEARCH INSTITUTE OF CHEMICAL TECHNOLOGY, priority 2019, dated 2025).

Assay in all cases: Herbicidal activity test against upland field weeds (soil treatment test)
Common to all, as to type: in vivo

In one assay the test system is indian jointvetch. More on the design: key to Soil treatment herbicidal activity, Indian jointvetch: 0 (no control); 100 (complete control). The settings on record: scale 0 (no control) to 100 (complete control). The method in brief: (§1)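 Pre-emergence test: seeds or rootstocks were sown in fertilized sandy loam, and the next day the soil surface was sprayed with compound at 50 or 75 g a.i./ha in 50% acetone/0.1% Tween-20. Plants were grown in a greenhouse (30±5 °C, 14/10 h light/dark), then visually scored 0–100 against untreated at 14 d (21 d if needed).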

Another assay has as its system bindweed. More on the design: key to Soil treatment herbicidal activity, Bindweed: 0 (no control); 100 (complete control). The settings on record: scale 0 (no control) to 100 (complete control). The method in brief: as §1
In another assay the test system is black nightshade. More on the design: key to Soil treatment herbicidal activity, black nightshade: 0 (no control); 100 (complete control). The following applies: scale 0 (no control) to 100 (complete control); for pest or weed control at 50 g/ha: Solanum nigrum. The method in brief: as §1

As a reminder, the pest or weed control is the degree to which the test organism was suppressed or injured, in per cent. As for `Cn1ncnc1COCc1nc(C(F)(F)F)ccc1C(=O)Nc1nnnn1C` [Compound No. 1-102, 2-(((1-methyl-1H-1,2,4-triazol-5-yl)methoxy)methyl)-N-(1-methyl-1H-tetrazol-5-yl)-6-(trifluoromethyl)nicotinamide], the pest or weed control at 50 g/ha in the assay on indian jointvetch (50 g ai/ha) was 20%. Further, the “Soil treatment herbicidal activity, Bindweed” value in the assay with bindweed (50 g ai/ha) is reported as 0.

For `Cn1nnc(COCc2nc(C(F)(F)F)ccc2C(=O)N(C(=O)c2ccccc2)c2nnnn2C)n1` [Compound No. 2-68, N-benzoyl-N-(1-methyl-1H-tetrazol-5-yl)-2-(((2-methyl-2H-tetrazol-5-yl)methoxy)methyl)-6-(trifluoromethyl)nicotinamide], the “Soil treatment herbicidal activity, Indian jointvetch” value in the assay on indian jointvetch (50 g ai/ha) worked out at 100. Also, the “Soil treatment herbicidal activity, Bindweed” value in the assay on bindweed (50 g ai/ha) is 0.

Regarding `Cn1nnc(CSCc2nc(C(F)(F)F)ccc2C(=O)Nc2nnnn2C)n1` [Compound No. 2-102, N-(1-methyl-1H-tetrazol-5-yl)-2-((((2-methyl-2H-tetrazol-5-yl)methyl)thio)methyl)-6-(trifluoromethyl)nicotinamide], in the assay with black nightshade (50 g ai/ha), the “Soil treatment herbicidal activity, black nightshade” value is listed as 100.

For the molecule `Cn1nnnc1COc1nc(C(F)(F)F)ccc1C(=O)Nc1nnnn1C` [Compound No. 1-1, N-(1-methyl-1H-tetrazol-5-yl)-2-((1-methyl-1H-tetrazol-5-yl)methoxy)-6-(trifluoromethyl)nicotinamide], the “Soil treatment herbicidal activity, Indian jointvetch” value in the assay on indian jointvetch (50 g ai/ha) is on record as 0. In the assay on bindweed (50 g ai/ha), the “Soil treatment herbicidal activity, Bindweed” value came out at 0. Further, the “Soil treatment herbicidal activity, black nightshade” value with black nightshade (50 g ai/ha) was found to be 100.

For the molecule `Cn1nnc(CS(=O)(=O)Cc2nc(C(F)(F)F)ccc2C(=O)Nc2nnnn2C)n1` [Compound No. 2-105, N-(1-methyl-1H-tetrazol-5-yl)-2-((((2-methyl-2H-tetrazol-5-yl)methyl)sulfonyl)methyl)-6-(trifluoromethyl)nicotinamide], the values for the pest or weed control at 50 g/ha with indian jointvetch (50 g ai/ha), in the assay on bindweed (50 g ai/ha) and in the assay with black nightshade (50 g ai/ha) were 90%, 30% and 60%, respectively.

Turning to `Cn1cnc(COCc2nc(C(F)F)ccc2C(=O)Nc2nnnn2C)n1` [Compound No. 2-85], the “Soil treatment herbicidal activity, Indian jointvetch” value in the assay with indian jointvetch (50 g ai/ha) amounted to 55. The “Soil treatment herbicidal activity, Bindweed” value in the assay on bindweed (50 g ai/ha) is on record as 35. Also, the “Soil treatment herbicidal activity, black nightshade” value with black nightshade (50 g ai/ha) was found to be 93.

As to `CCOC(=O)OC(C)N(C(=O)c1ccc(C(F)(F)F)nc1COCc1nnn(C)n1)c1nnnn1C` (stereo not shown) [Compound No. 4-8, ethyl(1-(N-(1-methyl-1H-tetrazol-5-yl)-2-(((2-methyl-2H-tetrazol-5-yl)methoxy)methyl)-6-(trifluoromethyl)nicotinamido)ethyl)carbonate], in the assay on indian jointvetch (50 g ai/ha), the “Soil treatment herbicidal activity, Indian jointvetch” value was found to be 100. Moreover, the “Soil treatment herbicidal activity, Bindweed” value with bindweed (50 g ai/ha) worked out at 0. Moreover, the “Soil treatment herbicidal activity, black nightshade” value in the assay on black nightshade (50 g ai/ha) worked out at 100.

On to `Cn1nnc(COCc2nc(C(F)(F)F)ccc2C(=O)N(c2nnnn2C)S(C)(=O)=O)n1` [Compound No. 2-69, N-(1-methyl-1H-tetrazol-5-yl)-2-(((2-methyl-2H-tetrazol-5-yl)methoxy)methyl)-N-(methylsulfonyl)-6-(trifluoromethyl)nicotinamide], for which the “Soil treatment herbicidal activity, Indian jointvetch” value in the assay with indian jointvetch (50 g ai/ha) came to 100. The pest or weed control at 50 g/ha in the assay with bindweed (50 g ai/ha) is 70%.

For `CON(Cc1nnn(C)n1)c1nc(C(F)(F)F)ccc1C(=O)Nc1nnnn1C` [Compound No. 2-30, 2-(methoxy((2-methyl-2H-tetrazol-5-yl)methyl)amino)-N-(1-methyl-1H-tetrazol-5-yl)-6-(trifluoromethyl)nicotinamide], the “Soil treatment herbicidal activity, Indian jointvetch” value in the assay on indian jointvetch (50 g ai/ha) is given as 100. The pest or weed control at 50 g/ha with bindweed (50 g ai/ha) was 70%. In addition, the “Soil treatment herbicidal activity, black nightshade” value in the assay with black nightshade (50 g ai/ha) amounted to 100.

`Cn1nnnc1COCc1nc(C(F)(F)F)ccc1C(=O)Nc1nnnn1C` [Compound No. 1-61, N-(1-methyl-1H-tetrazol-5-yl)-2-(((1-methyl-1H-tetrazol-5-yl)methoxy)methyl)-6-(trifluoromethyl)nicotinamide]: the “Soil treatment herbicidal activity, Indian jointvetch” value in the assay on indian jointvetch (50 g ai/ha) worked out at 100. The “Soil treatment herbicidal activity, Bindweed” value in the assay on bindweed (50 g ai/ha) turned out to be 0. Further, the pest or weed control at 50 g/ha in the assay on black nightshade (50 g ai/ha) turned out to be 98%.

With `Cn1nnc(COc2nc(C(F)(F)F)ccc2C(=O)Nc2nnnn2C)n1` [Compound No. 2-1, N-(1-methyl-1H-tetrazol-5-yl)-2-((2-methyl-2H-tetrazol-5-yl)methoxy)-6-(trifluoromethyl)nicotinamide], in the assay with indian jointvetch (50 g ai/ha), the “Soil treatment herbicidal activity, Indian jointvetch” value is on record as 0. For the same molecule, the “Soil treatment herbicidal activity, Bindweed” value with bindweed (50 g ai/ha) was found to be 0. This molecule registered a pest or weed control at 50 g/ha in the assay on black nightshade (50 g ai/ha) of 90%.

In the case of `Cn1nnc(COCc2nc(C(F)(F)F)ccc2C(=S)Nc2nnnn2C)n1` [Compound No. 2-106, N-(1-methyl-1H-tetrazol-5-yl)-2-(((2-methyl-2H-tetrazol-5-yl)methoxy)methyl)-6-(trifluoromethyl)pyridin-3-carbothioamide], in the assay on indian jointvetch (50 g ai/ha), the “Soil treatment herbicidal activity, Indian jointvetch” value is reported as 100. In the assay with bindweed (50 g ai/ha), this molecule came in with a pest or weed control at 50 g/ha of 98%.

`Cn1nnc(COCc2nc(C(F)(F)F)ccc2C(=O)Nc2nnnn2C)n1` [Compound No. 2-59, N-(1-methyl-1H-tetrazol-5-yl)-2-(((2-methyl-2H-tetrazol-5-yl)methoxy)methyl)-6-(trifluoromethyl)nicotinamide]: in the assay on indian jointvetch (50 g ai/ha), the “Soil treatment herbicidal activity, Indian jointvetch” value is on record as 100. The same molecule gave a pest or weed control at 50 g/ha in the assay on bindweed (50 g ai/ha) of 90%. The “Soil treatment herbicidal activity, black nightshade” value in the assay with black nightshade (50 g ai/ha) is recorded as 100.

Turning to `CCOC(=O)OC(C)n1nnn(C)c1=NC(=O)c1ccc(C(F)(F)F)nc1CSCc1nnn(C)n1` (stereo not shown) [Compound No. 4-10, ethyl (1-(4-methyl-5-((2-((((2-methyl-2H-tetrazol-5-yl)methyl)thio)methyl)-6-(trifluoromethyl)nicotinoyl)imino)-4,5-dihydro-1H-tetrazol-1-yl)ethyl)carbonate], the “Soil treatment herbicidal activity, Indian jointvetch” value in the assay with indian jointvetch (50 g ai/ha) is listed as 95BI. Moreover, the “Soil treatment herbicidal activity, Bindweed” value in the assay with bindweed (50 g ai/ha) is 40. Besides, the “Soil treatment herbicidal activity, black nightshade” value with black nightshade (50 g ai/ha) was found to be 100.

For `CN(Cc1nnn(C)n1)c1nc(C(F)(F)F)ccc1C(=O)Nc1nnnn1C` [Compound No. 2-26, 2-(methyl((2-methyl-2H-tetrazol-5-yl)methyl)amino)-N-(1-methyl-1H-tetrazol-5-yl)-6-(trifluoromethyl)nicotinamide], the “Soil treatment herbicidal activity, Indian jointvetch” value in the assay on indian jointvetch (75 g ai/ha) is 100. Moreover, in the assay on bindweed (75 g ai/ha), the “Soil treatment herbicidal activity, Bindweed” value was 100. Also, in the assay with black nightshade (75 g ai/ha), the “Soil treatment herbicidal activity, black nightshade” value was 100.

On to `Cn1nnc(COCc2nc(C(F)(F)C(F)(F)F)ccc2C(=O)Nc2nnnn2C)n1` [Compound No. 2-81, N-(1-methyl-1H-tetrazol-5-yl)-2-(((2-methyl-2H-tetrazol-5-yl)methoxy)methyl)-6-(perfluoroethyl)nicotinamide], for which the “Soil treatment herbicidal activity, Indian jointvetch” value with indian jointvetch (50 g ai/ha) was 100. This molecule also gave a pest or weed control at 50 g/ha in the assay with bindweed (50 g ai/ha) of 70%.

Take `COc1nc(COCc2nc(C(F)(F)F)ccc2C(=O)Nc2nnnn2C)nn1C` [Compound No. 2-129, 2-(((5-methoxy-1-methyl-1H-1,2,4-triazol-3-yl)methoxy)methyl)-N-(1-methyl-1H-tetrazol-5-yl)-6-(trifluoromethyl)nicotinamide]: the “Soil treatment herbicidal activity, Indian jointvetch” value in the assay with indian jointvetch (50 g ai/ha) is listed as 0. Moreover, in the assay with black nightshade (50 g ai/ha), the “Soil treatment herbicidal activity, black nightshade” value amounted to 100.

Take `Cn1nnnc1COc1nc(C(F)(F)F)ccc1C(=S)Nc1nnnn1C` [Compound No. 1-43, N-(1-methyl-1H-tetrazol-5-yl)-2-((1-methyl-1H-tetrazol-5-yl)methoxy)-6-(trifluoromethyl)pyridin-3-carbothioamide]: the “Soil treatment herbicidal activity, Indian jointvetch” value with indian jointvetch (50 g ai/ha) is on record as 0. In addition, in the assay on bindweed (50 g ai/ha), the “Soil treatment herbicidal activity, Bindweed” value was determined as 0. In the assay on black nightshade (50 g ai/ha), the “Soil treatment herbicidal activity, black nightshade” value is 0.

In the assay with indian jointvetch (50 g ai/ha), `Cn1nnnc1NC(=O)c1ccc(C(F)(F)F)nc1OCc1nnnn1C(F)F` [Compound No. 1-26, 2-((1-(difluoromethyl)-1H-tetrazol-5-yl)methoxy)-N-(1-methyl-1H-tetrazol-5-yl)-6-(trifluoromethyl)nicotinamide] had a pest or weed control at 50 g/ha of 70%. Further, the “Soil treatment herbicidal activity, Bindweed” value with bindweed (50 g ai/ha) came out at 0. Moreover, the “Soil treatment herbicidal activity, black nightshade” value in the assay with black nightshade (50 g ai/ha) came to 100.

For `Cn1nnc(COCc2nc(C(F)F)ccc2C(=O)Nc2nnnn2C)n1` [Compound No. 2-84, 6-(difluoromethyl)-N-(1-methyl-1H-tetrazol-5-yl)-2-(((2-methyl-2H-tetrazol-5-yl)methoxy)methyl)nicotinamide], the pest or weed control at 50 g/ha with indian jointvetch (50 g ai/ha) stood at 98%; in the assay with bindweed (50 g ai/ha) it was 40%. Also, in the assay with black nightshade (50 g ai/ha), the “Soil treatment herbicidal activity, black nightshade” value was 100.

With `COC(=O)OC(C)N(C(=O)c1ccc(C(F)(F)F)nc1COCc1nnn(C)n1)c1nnnn1C` (stereo not shown) [Compound No. 4-4, methyl(1-(N-(1-methyl-1H-tetrazol-5-yl)-2-(((2-methyl-2H-tetrazol-5-yl)methoxy)methyl)-6-(trifluoromethyl)nicotinamido)ethyl)carbonate], the “Soil treatment herbicidal activity, Bindweed” value in the assay on bindweed (50 g ai/ha) was found to be 0. In addition, the “Soil treatment herbicidal activity, black nightshade” value in the assay with black nightshade (50 g ai/ha) is recorded as 100.

Turning to `Cn1nnc(COCc2nc(C(F)(F)Cl)ccc2C(=O)Nc2nnnn2C)n1` [Compound No. 2-78, 6-(chlorodifluoromethyl)-N-(1-methyl-1H-tetrazol-5-yl)-2-(((2-methyl-2H-tetrazol-5-yl)methoxy)methyl)nicotinamide], the pest or weed control at 50 g/ha was found to be 95% in the assay on indian jointvetch (50 g ai/ha) and 40% in the assay with bindweed (50 g ai/ha).

Take `Cn1nc(COCc2nc(C(F)(F)F)ccc2C(=O)Nc2nnnn2C)nc1Cl` [Compound No. 2-135, 2-(((5-chloro-1-methyl-1H-1,2,4-triazol-3-yl)methoxy)methyl)-N-(1-methyl-1H-tetrazol-5-yl)-6-(trifluoromethyl)nicotinamide]: the “Soil treatment herbicidal activity, Indian jointvetch” value in the assay on indian jointvetch (50 g ai/ha) is on record as 0. In the assay on black nightshade (50 g ai/ha), this molecule came in with a pest or weed control at 50 g/ha of 60%.
